Laboratory results as given in paper PMC9983021, “Novel GluN2B-Selective NMDA Receptor Negative Allosteric Modulator Possesses Intrinsic Analgesic Properties and Enhances Analgesia of Morphine in a Rodent Tail Flick Pain Model” (ACS Chemical Neuroscience, 2023).

Experiments:
hGluA3-L531Y = target: T1, hGluA3-L531Y (Homo sapiens, UniProt P42263, L513Y); experiment: Off-target ligand-gated ion channels in Xenopus oocytes; type: cell-based; settings: agonist 100 µM glutamate; mean ± SEM
T1 construct: expressed in transfected cells; host or cells: Xenopus oocytes
Protocol: (§1) EU93-108 was further examined for its behavior against common off-target receptors. First, selectivity for GluN2B over other ion channels in the brain was examined via two-electrode voltage clamp recordings of Xenopus oocytes expressing AMPA, kainate, nicotinic acetylcholine, serotonin, GABA, glycine, and ATP receptors. Current responses were tested with saturating concentrations of agonist in both the absence and presence of 10 μM EU93-108, and confirmed selectivity for GluN2B-containing NMDA receptors over AMPA, kainate, GABA, glycine, ATP, and 5-HT3A receptors (Supporting Table S3).
(§2) Receptor Agonist % Control
(§3) Supplemental Table S3. Off-target actions of EU93-108 at ligand-gated ion channels expressed in Xenopus oocytes. The mean ± standard error of the mean for agonist plus 10 μM EU93-108 as a percentage of agonist in vehicle are given for each compound and receptor tested. Number of oocytes tested is given in parentheses.

α1-Glycine = target: T2, α1-Glycine (Homo sapiens, UniProt P23415); experiment: as above; type: cell-based; settings: agonist 100 µM glycine; mean ± SEM
T2 construct: expressed in transfected cells; host or cells: Xenopus oocytes
T2 sequence (P23415 29-457): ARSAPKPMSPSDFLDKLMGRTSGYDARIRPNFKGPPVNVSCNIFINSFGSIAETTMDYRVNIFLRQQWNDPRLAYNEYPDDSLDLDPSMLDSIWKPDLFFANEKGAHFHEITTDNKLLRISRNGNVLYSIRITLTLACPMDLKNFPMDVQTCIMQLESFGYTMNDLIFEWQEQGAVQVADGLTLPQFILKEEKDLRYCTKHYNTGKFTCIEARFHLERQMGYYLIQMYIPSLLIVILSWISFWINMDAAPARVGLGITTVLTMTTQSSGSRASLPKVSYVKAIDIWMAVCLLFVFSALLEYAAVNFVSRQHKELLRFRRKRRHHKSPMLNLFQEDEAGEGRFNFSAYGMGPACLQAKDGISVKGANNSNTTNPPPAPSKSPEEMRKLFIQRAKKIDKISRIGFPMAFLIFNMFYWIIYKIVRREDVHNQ
Protocol: as §1, §2, §3

GluA1 = target: T3, GluA1 (Homo sapiens, UniProt P42261); experiment: as above; type: cell-based; settings: agonist 100 µM glutamate; mean ± SEM
T3 construct: expressed in transfected cells; host or cells: Xenopus oocytes
T3 sequence (P42261 19-906, species assumed): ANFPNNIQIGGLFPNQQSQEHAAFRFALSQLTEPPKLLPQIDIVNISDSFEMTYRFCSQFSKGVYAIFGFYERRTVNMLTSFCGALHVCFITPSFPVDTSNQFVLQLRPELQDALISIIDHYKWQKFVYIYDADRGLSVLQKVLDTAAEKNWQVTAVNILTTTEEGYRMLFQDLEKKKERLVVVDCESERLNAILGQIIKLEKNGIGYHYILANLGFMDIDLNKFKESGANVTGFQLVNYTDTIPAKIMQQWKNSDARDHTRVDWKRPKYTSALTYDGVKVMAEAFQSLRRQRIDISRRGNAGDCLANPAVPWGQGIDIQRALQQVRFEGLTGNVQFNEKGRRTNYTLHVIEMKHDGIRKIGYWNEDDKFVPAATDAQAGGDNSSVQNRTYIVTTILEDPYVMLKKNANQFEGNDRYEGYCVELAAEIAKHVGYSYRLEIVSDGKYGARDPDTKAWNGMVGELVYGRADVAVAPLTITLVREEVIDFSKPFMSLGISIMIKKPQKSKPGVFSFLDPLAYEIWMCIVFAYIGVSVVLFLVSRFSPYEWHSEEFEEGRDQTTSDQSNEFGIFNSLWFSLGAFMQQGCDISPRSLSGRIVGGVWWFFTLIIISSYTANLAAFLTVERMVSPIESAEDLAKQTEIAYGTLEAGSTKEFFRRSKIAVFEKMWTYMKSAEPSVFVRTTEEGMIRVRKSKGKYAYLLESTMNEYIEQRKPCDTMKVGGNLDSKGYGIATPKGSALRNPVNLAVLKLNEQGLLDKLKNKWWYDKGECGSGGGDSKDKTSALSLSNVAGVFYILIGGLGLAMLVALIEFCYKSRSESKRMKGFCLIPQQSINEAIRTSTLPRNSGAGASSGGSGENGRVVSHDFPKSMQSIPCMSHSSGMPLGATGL
Protocol: as §1, §2, §3

α7-nACh = target: T4, α7-nACh (Homo sapiens, UniProt P36544); experiment: as above; type: cell-based; settings: agonist 300 µM acetylcholine; mean ± SEM
T4 construct: expressed in transfected cells; host or cells: Xenopus oocytes
T4 sequence (P36544 23-502): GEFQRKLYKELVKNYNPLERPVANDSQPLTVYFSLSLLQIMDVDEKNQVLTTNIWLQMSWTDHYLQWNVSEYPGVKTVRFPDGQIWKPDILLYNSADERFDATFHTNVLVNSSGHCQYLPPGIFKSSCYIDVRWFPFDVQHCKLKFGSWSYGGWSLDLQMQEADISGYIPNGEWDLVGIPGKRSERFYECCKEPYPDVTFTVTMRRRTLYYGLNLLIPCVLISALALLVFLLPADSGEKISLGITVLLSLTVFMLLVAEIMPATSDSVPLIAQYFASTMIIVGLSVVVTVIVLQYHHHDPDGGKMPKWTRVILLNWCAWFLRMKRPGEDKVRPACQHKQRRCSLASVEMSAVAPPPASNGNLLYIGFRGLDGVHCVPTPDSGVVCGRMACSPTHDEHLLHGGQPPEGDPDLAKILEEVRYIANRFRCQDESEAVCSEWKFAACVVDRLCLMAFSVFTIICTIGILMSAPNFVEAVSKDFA
Protocol: as §1, §2, §3

ρ-GABAC = experiment: as above; type: cell-based; settings: agonist 100 µM GABA; mean ± SEM
Protocol: as §1, §2, §3

α1β2γ2S-GABAA = target: T5, α1β2γ2S-GABAA (Homo sapiens, UniProt P14867+P18507+P47870); experiment: as above; type: cell-based; settings: agonist 100 µM GABA; mean ± SEM
T5 construct: expressed in transfected cells; host or cells: Xenopus oocytes
Protocol: as §1, §2, §3

rGluN1/GluN3B = target: T6, rGluN1/GluN3B (Rattus norvegicus, UniProt P35439+Q8VHN2); experiment: as above; type: cell-based; settings: agonist 100 µM glycine; mean ± SEM
T6 construct: expressed in transfected cells; host or cells: Xenopus oocytes
Protocol: as §1, §2, §3

α4β2-nACh = target: T7, α4β2-nACh (Homo sapiens, UniProt P17787+P43681); experiment: as above; type: cell-based; settings: agonist 10 µM acetylcholine; mean ± SEM
T7 construct: expressed in transfected cells; host or cells: Xenopus oocytes
Protocol: as §1, §2, §3

hGluN1/GluN3A = target: T8, hGluN1/GluN3A (Homo sapiens, UniProt Q05586+Q8TCU5); experiment: as above; type: cell-based; settings: agonist 100 µM glycine; mean ± SEM
T8 construct: expressed in transfected cells; host or cells: Xenopus oocytes
T8 sequence (Q8TCU5 24-1115, other chains not shown): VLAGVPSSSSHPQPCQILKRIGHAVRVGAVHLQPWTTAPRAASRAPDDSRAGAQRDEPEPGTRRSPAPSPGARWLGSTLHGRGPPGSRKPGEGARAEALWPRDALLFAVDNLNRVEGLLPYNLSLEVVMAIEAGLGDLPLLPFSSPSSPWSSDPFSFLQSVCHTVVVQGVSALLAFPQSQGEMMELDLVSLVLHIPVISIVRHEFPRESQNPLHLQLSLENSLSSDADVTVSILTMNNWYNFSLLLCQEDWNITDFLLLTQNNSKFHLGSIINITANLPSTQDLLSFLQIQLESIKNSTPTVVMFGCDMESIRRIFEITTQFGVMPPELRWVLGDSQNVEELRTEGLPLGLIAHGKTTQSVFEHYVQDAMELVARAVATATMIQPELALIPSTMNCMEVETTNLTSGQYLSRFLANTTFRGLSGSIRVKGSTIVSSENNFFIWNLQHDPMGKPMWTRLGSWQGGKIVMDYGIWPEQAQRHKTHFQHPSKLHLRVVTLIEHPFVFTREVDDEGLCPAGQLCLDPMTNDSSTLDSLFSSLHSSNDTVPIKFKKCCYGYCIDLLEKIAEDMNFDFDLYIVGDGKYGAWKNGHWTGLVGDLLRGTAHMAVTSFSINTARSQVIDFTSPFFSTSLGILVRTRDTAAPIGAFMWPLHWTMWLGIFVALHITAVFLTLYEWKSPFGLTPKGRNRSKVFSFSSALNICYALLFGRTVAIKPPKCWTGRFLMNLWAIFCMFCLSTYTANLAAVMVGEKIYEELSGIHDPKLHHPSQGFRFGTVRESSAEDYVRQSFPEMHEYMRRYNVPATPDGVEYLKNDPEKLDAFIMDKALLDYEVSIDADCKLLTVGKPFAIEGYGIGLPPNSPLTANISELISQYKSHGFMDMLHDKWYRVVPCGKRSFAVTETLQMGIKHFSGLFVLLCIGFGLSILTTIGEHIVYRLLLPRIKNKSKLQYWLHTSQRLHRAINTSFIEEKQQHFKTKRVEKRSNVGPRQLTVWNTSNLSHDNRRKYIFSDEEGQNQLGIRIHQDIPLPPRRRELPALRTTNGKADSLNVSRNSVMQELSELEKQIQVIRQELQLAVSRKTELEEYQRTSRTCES
Protocol: as §1, §2, §3

5-HT3A = target: T9, 5-HT3A (Homo sapiens, UniProt P46098); experiment: as above; type: cell-based; settings: agonist 100 µM serotonin; mean ± SEM
T9 construct: expressed in transfected cells; host or cells: Xenopus oocytes
Protocol: as §1, §2, §3

hP2x = experiment: as above; type: cell-based, human; settings: agonist 9 µM ATP; mean ± SEM
Protocol: as §1, §2, §3

KOR = target: T10, KOR (Homo sapiens, UniProt P41145); experiment: Radioligand binding assay (NIMH PDSP); settings: primary screen, quadruplicate
T10 construct: purchased NIMH Psychoactive Drug Screening Program (PDSP)
Protocol: (§4) Conventional competition and saturation radioligand binding assays were used to determine the affinities of reference standards and EU93-108. Experiments were carried out by the NIMH Psychoactive Drug Screening Program (PDSP) and were performed as previously described.[123]
(§5) The detailed experimental protocols for the radioligand assays are available on the NIMH PDSP website at https://pdsp.unc.edu/pdspweb/content/UNC-CH%20Protocol%20Book.pdf.
(§6) Receptor Mean % Receptor Mean % Receptor Mean %
(§7) Inhibition Inhibition Inhibition
(§8) Supplemental Table S4. Off-Target Actions of EU93-108: Primary GPCR Screen. Cloned human molecular targets were individually expressed and submitted to molecular target-based screening with initial screens performed at a final concentration of 10 µM in quadruplicate. Complete protocols for the assays have been previously published (Besnard J et al. 2012). Where inhibition greater than 50% was measured, secondary screens were performed wherein Ki values were calculated (see Table 4).

M5 = target: T11, M5 (Homo sapiens, UniProt P08912); experiment: Radioligand binding assay (NIMH PDSP); settings: primary screen, quadruplicate
T11 construct: purchased NIMH Psychoactive Drug Screening Program (PDSP)
Protocol: as §4, §5, §6, §7, §8

D4 = target: T12, D4 (Homo sapiens, UniProt P21917); experiment: Radioligand binding assay (NIMH PDSP); settings: primary screen, quadruplicate
T12 construct: purchased NIMH Psychoactive Drug Screening Program (PDSP)
Protocol: as §4, §5, §6, §7, §8

Beta3 = target: T13, Beta3 (Homo sapiens, UniProt P13945); experiment: Radioligand binding assay (NIMH PDSP); settings: primary screen, quadruplicate
T13 construct: purchased NIMH Psychoactive Drug Screening Program (PDSP)
Protocol: as §4, §5, §6, §7, §8

D2 = target: T14, D2 (Homo sapiens, UniProt P14416); experiment: Radioligand binding assay (NIMH PDSP); settings: primary screen, quadruplicate
T14 construct: purchased NIMH Psychoactive Drug Screening Program (PDSP)
Protocol: as §4, §5, §6, §7, §8

MOR = target: T15, MOR (Homo sapiens, UniProt P35372); experiment: Radioligand binding assay (NIMH PDSP); settings: primary screen, quadruplicate
T15 construct: purchased NIMH Psychoactive Drug Screening Program (PDSP)
Protocol: as §4, §5, §6, §7, §8

5-HT1B = target: T16, 5-HT1B (Homo sapiens, UniProt P28222); experiment: Radioligand binding assay (NIMH PDSP); settings: primary screen, quadruplicate
T16 construct: purchased NIMH Psychoactive Drug Screening Program (PDSP)
Protocol: as §4, §5, §6, §7, §8

M1 = target: T17, M1 (Homo sapiens, UniProt P11229); experiment: Radioligand binding assay (NIMH PDSP); settings: primary screen, quadruplicate
T17 construct: purchased NIMH Psychoactive Drug Screening Program (PDSP)
Protocol: as §4, §5, §6, §7, §8

D5 = target: T18, D5 (Homo sapiens, UniProt P21918); experiment: Radioligand binding assay (NIMH PDSP); settings: primary screen, quadruplicate
T18 construct: purchased NIMH Psychoactive Drug Screening Program (PDSP)
Protocol: as §4, §5, §6, §7, §8

5-HT5A = target: T19, 5-HT5A (Homo sapiens, UniProt P47898); experiment: Radioligand binding assay (NIMH PDSP); settings: primary screen, quadruplicate
T19 construct: purchased NIMH Psychoactive Drug Screening Program (PDSP)
Protocol: as §4, §5, §6, §7, §8

M2 = target: T20, M2 (Homo sapiens, UniProt P08172); experiment: Radioligand binding assay (NIMH PDSP); settings: primary screen, quadruplicate
T20 construct: purchased NIMH Psychoactive Drug Screening Program (PDSP)
T20 sequence (P08172 whole entry): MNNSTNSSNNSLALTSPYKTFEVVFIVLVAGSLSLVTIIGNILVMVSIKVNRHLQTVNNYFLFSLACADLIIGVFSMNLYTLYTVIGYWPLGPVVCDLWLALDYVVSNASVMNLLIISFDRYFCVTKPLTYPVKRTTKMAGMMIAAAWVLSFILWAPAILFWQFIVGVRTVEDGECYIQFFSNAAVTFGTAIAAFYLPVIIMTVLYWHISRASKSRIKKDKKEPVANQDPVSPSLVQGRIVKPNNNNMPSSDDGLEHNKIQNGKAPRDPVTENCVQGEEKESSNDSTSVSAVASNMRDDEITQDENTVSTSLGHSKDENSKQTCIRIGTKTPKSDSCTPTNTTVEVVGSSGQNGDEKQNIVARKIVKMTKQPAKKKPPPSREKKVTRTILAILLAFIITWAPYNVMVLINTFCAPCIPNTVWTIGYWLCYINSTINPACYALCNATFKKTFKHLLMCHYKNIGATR
Protocol: as §4, §5, §6, §7, §8

5-HT1E = target: T21, 5-HT1E (Homo sapiens, UniProt P28566); experiment: Radioligand binding assay (NIMH PDSP); settings: primary screen, quadruplicate
T21 construct: purchased NIMH Psychoactive Drug Screening Program (PDSP)
Protocol: as §4, §5, §6, §7, §8

H3 = target: T22, H3 (Homo sapiens, UniProt Q9Y5N1); experiment: Radioligand binding assay (NIMH PDSP); settings: primary screen, quadruplicate
T22 construct: purchased NIMH Psychoactive Drug Screening Program (PDSP)
Protocol: as §4, §5, §6, §7, §8

NET = target: T23, NET (Homo sapiens, UniProt P23975); experiment: Radioligand binding assay (NIMH PDSP); settings: primary screen, quadruplicate
T23 construct: purchased NIMH Psychoactive Drug Screening Program (PDSP)
Protocol: as §4, §5, §6, §7, §8

H4 = target: T24, H4 (Homo sapiens, UniProt Q9H3N8); experiment: Radioligand binding assay (NIMH PDSP); settings: primary screen, quadruplicate
T24 construct: purchased NIMH Psychoactive Drug Screening Program (PDSP)
T24 sequence (Q9H3N8 whole entry): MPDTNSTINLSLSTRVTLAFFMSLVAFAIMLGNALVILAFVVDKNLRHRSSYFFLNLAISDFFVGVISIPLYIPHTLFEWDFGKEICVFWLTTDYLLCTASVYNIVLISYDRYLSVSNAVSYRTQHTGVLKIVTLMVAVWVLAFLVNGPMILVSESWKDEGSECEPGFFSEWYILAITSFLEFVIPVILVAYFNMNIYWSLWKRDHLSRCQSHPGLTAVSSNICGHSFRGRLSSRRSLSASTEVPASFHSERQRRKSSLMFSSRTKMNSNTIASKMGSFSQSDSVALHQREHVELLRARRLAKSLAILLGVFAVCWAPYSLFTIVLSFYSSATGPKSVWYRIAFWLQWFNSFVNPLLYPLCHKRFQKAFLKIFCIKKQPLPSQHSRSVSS
Protocol: as §4, §5, §6, §7, §8

SERT = target: T25, SERT (Homo sapiens, UniProt P31645); experiment: Radioligand binding assay (NIMH PDSP); settings: primary screen, quadruplicate
T25 construct: purchased NIMH Psychoactive Drug Screening Program (PDSP)
Protocol: as §4, §5, §6, §7, §8

D1 = target: T26, D1 (Homo sapiens, UniProt P21728); experiment: Radioligand binding assay (NIMH PDSP); settings: primary screen, quadruplicate
T26 construct: purchased NIMH Psychoactive Drug Screening Program (PDSP)
T26 sequence (P21728 whole entry): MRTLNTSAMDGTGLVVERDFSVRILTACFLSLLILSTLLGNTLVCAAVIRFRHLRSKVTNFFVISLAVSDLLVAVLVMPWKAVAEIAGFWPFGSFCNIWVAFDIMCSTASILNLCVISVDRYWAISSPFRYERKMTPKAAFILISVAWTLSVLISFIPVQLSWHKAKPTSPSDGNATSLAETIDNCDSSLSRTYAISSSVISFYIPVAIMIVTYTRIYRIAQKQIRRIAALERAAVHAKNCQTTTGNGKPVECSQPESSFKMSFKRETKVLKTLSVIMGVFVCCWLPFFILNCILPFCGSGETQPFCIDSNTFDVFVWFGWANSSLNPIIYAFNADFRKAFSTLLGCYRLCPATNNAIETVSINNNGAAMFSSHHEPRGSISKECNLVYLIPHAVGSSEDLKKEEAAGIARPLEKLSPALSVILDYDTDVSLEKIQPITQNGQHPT
Protocol: as §4, §5, §6, §7, §8

M4 = target: T27, M4 (Homo sapiens, UniProt P08173); experiment: Radioligand binding assay (NIMH PDSP); settings: primary screen, quadruplicate
T27 construct: purchased NIMH Psychoactive Drug Screening Program (PDSP)
Protocol: as §4, §5, §6, §7, §8

Beta2 = target: T28, Beta2 (Homo sapiens, UniProt P07550); experiment: Radioligand binding assay (NIMH PDSP); settings: primary screen, quadruplicate
T28 construct: purchased NIMH Psychoactive Drug Screening Program (PDSP)
Protocol: as §4, §5, §6, §7, §8

DOR = target: T29, DOR (Homo sapiens, UniProt P41143); experiment: Radioligand binding assay (NIMH PDSP); settings: primary screen, quadruplicate
T29 construct: purchased NIMH Psychoactive Drug Screening Program (PDSP)
T29 sequence (P41143 whole entry): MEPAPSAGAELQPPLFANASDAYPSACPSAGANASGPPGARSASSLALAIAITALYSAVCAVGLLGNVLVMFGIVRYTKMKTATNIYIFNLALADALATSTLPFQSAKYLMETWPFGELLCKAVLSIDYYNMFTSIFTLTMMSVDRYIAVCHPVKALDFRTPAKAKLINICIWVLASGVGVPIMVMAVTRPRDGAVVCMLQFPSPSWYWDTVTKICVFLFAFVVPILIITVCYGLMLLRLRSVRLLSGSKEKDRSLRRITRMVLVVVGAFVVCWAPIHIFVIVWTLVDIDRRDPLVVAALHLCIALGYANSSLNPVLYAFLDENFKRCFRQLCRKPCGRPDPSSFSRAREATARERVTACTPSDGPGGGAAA
Protocol: as §4, §5, §6, §7, §8

5-HT3 = target: T30, 5-HT3 (Homo sapiens, UniProt P46098); experiment: Radioligand binding assay (NIMH PDSP); settings: primary screen, quadruplicate
T30 construct: purchased NIMH Psychoactive Drug Screening Program (PDSP)
T30 sequence (P46098 24-478): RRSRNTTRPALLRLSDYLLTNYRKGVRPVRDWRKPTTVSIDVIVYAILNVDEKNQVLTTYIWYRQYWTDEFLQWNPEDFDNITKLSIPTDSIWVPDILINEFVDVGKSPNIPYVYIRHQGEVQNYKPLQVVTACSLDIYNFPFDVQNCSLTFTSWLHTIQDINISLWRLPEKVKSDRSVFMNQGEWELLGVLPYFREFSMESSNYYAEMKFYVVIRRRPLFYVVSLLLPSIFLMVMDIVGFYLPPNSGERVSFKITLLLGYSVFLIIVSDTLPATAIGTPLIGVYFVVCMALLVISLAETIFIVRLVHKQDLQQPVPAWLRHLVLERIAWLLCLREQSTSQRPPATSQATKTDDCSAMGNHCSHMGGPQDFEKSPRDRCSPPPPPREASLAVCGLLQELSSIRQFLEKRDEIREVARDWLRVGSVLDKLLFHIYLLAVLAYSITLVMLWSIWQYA
Protocol: as §4, §5, §6, §7, §8

H2 = target: T31, H2 (Homo sapiens, UniProt P25021); experiment: Radioligand binding assay (NIMH PDSP); settings: primary screen, quadruplicate
T31 construct: purchased NIMH Psychoactive Drug Screening Program (PDSP)
Protocol: as §4, §5, §6, §7, §8

CS(=O)(=O)Nc1ccc(OC[C@@H](O)CN2CCN(c3ccc(F)c(F)c3)CC2)cc1 [EU93-108, (S)-N-(4-(3-(4-(3,4-Difluorophenyl)piperazin-1-yl)-2-hydroxypropoxy)phenyl)methanesulfonamide]
% Control 10 µM EU93-108 (hGluA3-L531Y): 94.7 ± 5.1% | % Control 10 µM EU93-108 (α1-Glycine): 105 ± 6.6% | % Control 10 µM EU93-108 (GluA1): 101.3 ± 1.9% | % Control 10 µM EU93-108 (α7-nACh): 70.9 ± 6.5% | % Control 10 µM EU93-108 (ρ-GABAC): 97 ± 1.5% | % Control 10 µM EU93-108 (α1β2γ2S-GABAA): 92.8 ± 1.5% | % Control 10 µM EU93-108 (rGluN1/GluN3B): 108.8 ± 4.0% | % Control 10 µM EU93-108 (α4β2-nACh): 3.2 ± 0.7% | % Control 10 µM EU93-108 (hGluN1/GluN3A): 103.6 ± 1.7% | % Control 10 µM EU93-108 (5-HT3A): 92.8 ± 2.7% | % Control 10 µM EU93-108 (hP2x): 96.6 ± 4.3% | inhibition at 10 µM (KOR): -3.1% | inhibition at 10 µM (M5): -0.11% | inhibition at 10 µM (D4): 11.4% | inhibition at 10 µM (Beta3): -10.5% | inhibition at 10 µM (D2): 23.1% | inhibition at 10 µM (MOR): 4.04% | inhibition at 10 µM (5-HT1B): -7.29% | inhibition at 10 µM (M1): -18.1% | inhibition at 10 µM (D5): 8.94% | inhibition at 10 µM (5-HT5A): 13% | inhibition at 10 µM (M2): -23.1% | inhibition at 10 µM (5-HT1E): 1.68% | inhibition at 10 µM (H3): 22.7% | inhibition at 10 µM (NET): 12.5% | inhibition at 10 µM (H4): 2.12% | inhibition at 10 µM (SERT): 15.1% | inhibition at 10 µM (D1): 24.7% | inhibition at 10 µM (M4): 51.4% | inhibition at 10 µM (Beta2): 13.7% | inhibition at 10 µM (DOR): -8.82% | inhibition at 10 µM (5-HT3): 0.87% | inhibition at 10 µM (H2): 13.7%
